From PubChem BioAssay (NCI)
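GI50 = concentration required for 50% inhibition of growth. Definition used: TGI = concentration required for complete inhibition of growth.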

Legend:
Assay in all cases: NCI tumour cell line growth inhibition, 384-well format
MALME-3M melanoma = system: MALME-3M melanoma
SK-MEL-28 melanoma = system: SK-MEL-28 melanoma
IGROV1 ovarian = system: IGROV1 ovarian
MDA-MB-231 breast = system: MDA-MB-231 breast
UACC-257 melanoma = system: UACC-257 melanoma
SNB-75 CNS = system: SNB-75 CNS
NCI-H322M lung = system: NCI-H322M lung
BT-549 breast = system: BT-549 breast
RXF 393 renal = system: RXF 393 renal
HCT-15 colon = system: HCT-15 colon
NCI-H460 NSCLC = system: NCI-H460 NSCLC
SNB-19 CNS = system: SNB-19 CNS
UACC-62 melanoma = system: UACC-62 melanoma
SF-268 CNS = system: SF-268 CNS
HOP-92 NSCLC = system: HOP-92 NSCLC
EKVX NSCLC = system: EKVX NSCLC
SR leukemia = system: SR leukemia
ACHN renal = system: ACHN renal
HS 578T breast = system: HS 578T breast
HL-60(TB) leukemia = system: HL-60(TB) leukemia
SF-295 CNS = system: SF-295 CNS
OVCAR-5 ovarian = system: OVCAR-5 ovarian
SK-OV-3 ovarian = system: SK-OV-3 ovarian
MCF7 breast = system: MCF7 breast
KM12 colon = system: KM12 colon
HOP-62 NSCLC = system: HOP-62 NSCLC
COLO 205 colon = system: COLO 205 colon
HCT-116 colon = system: HCT-116 colon
MDA-MB-435 melanoma = system: MDA-MB-435 melanoma
NCI/ADR-RES ovarian = system: NCI/ADR-RES ovarian
NCI-H23 lung = system: NCI-H23 lung
NCI-H226 lung = system: NCI-H226 lung
HCC-2998 colon = system: HCC-2998 colon
OVCAR-8 ovarian = system: OVCAR-8 ovarian
SF-539 CNS = system: SF-539 CNS
RPMI-8226 leukemia = system: RPMI-8226 leukemia
SN12C renal = system: SN12C renal
MOLT-4 leukemia = system: MOLT-4 leukemia
M14 melanoma = system: M14 melanoma
LOX IMVI melanoma = system: LOX IMVI melanoma
CAKI-1 renal = system: CAKI-1 renal
MDA-MB-468 breast = system: MDA-MB-468 breast
SK-MEL-5 melanoma = system: SK-MEL-5 melanoma
NCI-H522 lung = system: NCI-H522 lung
A498 renal = system: A498 renal
HT29 colon = system: HT29 colon
OVCAR-4 ovarian = system: OVCAR-4 ovarian
TK-10 renal = system: TK-10 renal
U251 glioblastoma = system: U251 glioblastoma
A549 NSCLC = system: A549 NSCLC
T-47D breast = system: T-47D breast
OVCAR-3 ovarian = system: OVCAR-3 ovarian
PC-3 prostate = system: PC-3 prostate
DU-145 prostate = system: DU-145 prostate

## COc1cc2c(cc1-c1c(C)noc1C)ncc1[nH]c(=O)n([C@H](C)c3ccccn3)c12
MALME-3M melanoma
  GI50: 1.91 µM
  TGI: 32.5 µM
SK-MEL-28 melanoma
  GI50: 2.64 µM
  TGI: > 100 µM
IGROV1 ovarian
  GI50: 0.584 µM
  TGI: 9.78 µM
MDA-MB-231 breast
  GI50: 0.91 µM
  TGI: > 100 µM
UACC-257 melanoma
  GI50: 0.503 µM
  TGI: 11.6 µM
SNB-75 CNS
  GI50: 18.8 µM
  TGI: > 100 µM
NCI-H322M lung
  GI50: 0.509 µM
  TGI: 9.51 µM
BT-549 breast
  GI50: 0.504 µM
  TGI: 11.4 µM
RXF 393 renal
  GI50: 8.71 µM
  TGI: > 100 µM
HCT-15 colon
  GI50: 0.488 µM
  TGI: 2.8 µM
NCI-H460 NSCLC
  GI50: 2.92 µM
  TGI: > 100 µM
SNB-19 CNS
  GI50: 0.922 µM
  TGI: 63.5 µM
UACC-62 melanoma
  GI50: 0.308 µM
  TGI: > 100 µM
SF-268 CNS
  GI50: 8.13 µM
  TGI: > 100 µM
HOP-92 NSCLC
  GI50: 11.4 µM
  TGI: > 100 µM
EKVX NSCLC
  GI50: 27.7 µM
  TGI: > 100 µM
SR leukemia
  GI50: 0.297 µM
  TGI: 14.3 µM
ACHN renal
  GI50: 1.61 µM
  TGI: > 100 µM
HS 578T breast
  GI50: 0.342 µM
  TGI: 21.5 µM
HL-60(TB) leukemia
  GI50: 0.144 µM
  TGI: 0.277 µM
SF-295 CNS
  GI50: 5.3 µM
  TGI: > 100 µM
OVCAR-5 ovarian
  GI50: 0.392 µM
  TGI: 10.9 µM
SK-OV-3 ovarian
  GI50: 0.577 µM
  TGI: 45.5 µM
MCF7 breast
  GI50: 0.269 µM
  TGI: > 100 µM
KM12 colon
  GI50: 1.71 µM
  TGI: > 100 µM
HOP-62 NSCLC
  GI50: 0.335 µM
  TGI: 2.54 µM
COLO 205 colon
  GI50: 0.498 µM
  TGI: 6.27 µM
HCT-116 colon
  GI50: 1.9 µM
  TGI: > 100 µM
MDA-MB-435 melanoma
  GI50: 2.45 µM
  TGI: 51.2 µM
NCI/ADR-RES ovarian
  GI50: 3.05 µM
  TGI: 16.8 µM
NCI-H23 lung
  GI50: 1.25 µM
  TGI: > 100 µM
NCI-H226 lung
  GI50: 1.31 µM
  TGI: 24.7 µM
HCC-2998 colon
  GI50: 0.303 µM
  TGI: 2 µM
OVCAR-8 ovarian
  GI50: 0.521 µM
  TGI: 9.6 µM
SF-539 CNS
  GI50: 0.829 µM
  TGI: > 100 µM
RPMI-8226 leukemia
  GI50: 0.212 µM
  TGI: 0.819 µM
SN12C renal
  GI50: 0.364 µM
  TGI: > 100 µM
MOLT-4 leukemia
  GI50: 0.915 µM
  TGI: 7.74 µM
M14 melanoma
  GI50: 1.03 µM
  TGI: 33.2 µM
LOX IMVI melanoma
  GI50: 0.245 µM
  TGI: 0.574 µM
CAKI-1 renal
  GI50: 0.479 µM
  TGI: > 100 µM
MDA-MB-468 breast
  GI50: 0.872 µM
  TGI: > 100 µM
SK-MEL-5 melanoma
  GI50: 0.438 µM
  TGI: 8.69 µM
NCI-H522 lung
  GI50: 0.321 µM
  TGI: 2.41 µM
A498 renal
  GI50: 0.693 µM
  TGI: > 100 µM
HT29 colon
  GI50: 0.412 µM
  TGI: > 100 µM
OVCAR-4 ovarian
  GI50: 0.199 µM
  TGI: 0.615 µM
TK-10 renal
  GI50: 0.575 µM
  TGI: 12.4 µM
U251 glioblastoma
  GI50: 3.17 µM
  TGI: > 100 µM
A549 NSCLC
  GI50: 2.39 µM
  TGI: > 100 µM
T-47D breast
  GI50: 3.1 µM
  TGI: > 100 µM
OVCAR-3 ovarian
  GI50: 0.421 µM
  TGI: 7.13 µM
PC-3 prostate
  GI50: 0.743 µM
  TGI: > 100 µM
DU-145 prostate
  GI50: 8.96 µM
  TGI: > 100 µM
